Measured values: patent US5770604A, “Aconitine compound and an antipyretic/analgesic/anti-inflammatory agent” (priority 1994, dated 1998)

What was measured:
[1] = system: pain threshold (tail-pressure); experiment: Analgesic activity by the tail-pressure method (s.c.); type: in vivo, mice (Std:ddY, male); details: mouse, 10 mg/10 ml at 10 ml/kg s.c., 1 hour after administration, mean ± standard error
Method: (1) Measurement of Analgesic Activity by the Tail-Pressure Method
Std:ddY Strain male mice (20-25 g) were fasted for one day before the experiment, and were used. After test compounds shown in Table 1 was formed to a salt with tartaric acid, this salt was dissolved in 0.9% physiological saline solutions at the rate of 10 mg/10 ml to give the test compoun d solution . As a control, 0.9% physiological saline solution was used. A tail-pressure apparatus was used in this experiments. Before the administration of test compounds, the pain threshold was measured twice at intervals of 30 minutes and those mice indicating a pain threshold of 50 to 100 mmHg were selected and used. The pain threshold of each mouse was measured at 1 hour after test compound solution mentioned above was administered at 10 ml/kg, s.c. 0.9% Physiological saline solution as a control was administered at 10 ml/kg, s.c . The results were described as an inhibition rate (%) obtained from the following equation. Cutoff level of pressure was defined to be 230 mmHg for the prevention of the damage of mouse tail.
Inhibition rate (%)=(A-B)×100/(C-B)
A: Pain threshold (mmHg) after the administration of test compound solution
B: Pain threshold (mmHg) before the administration of test compound solution
C: Cutoff pressure (230 mmHg)

[2] = system: nociceptive response (licking); experiment: Analgesic activity by the hot-plate method; type: in vivo, mice (Std:ddY, male); details: mouse, 52° C. plate, solution 10 mg/10 ml, mean ± standard error
Method: Measurement of Analgesic Activity by the Hot-Plate Method
Std:ddY Strain male mice (20-25 g) were fasted for one day before the experiment, and were used. After compounds shown in Table 1 were formed to the tartaric acid salts, these compounds were dissolved in 0.9% physiologocal saline solution at the rate of 10 mg/10 ml, respectively and these solution were used as test compound solution. In a control, 0.9% physiological saline solution was used. Mice were placed on a cyrindric hot plate (diameter: 22 cm, height: 11 cm) made of copper which was fixed in a water bath adjusted to 52° C. so that each animal's four paws came into contact with the plate and the time taken to show the nociceptive response (licking) as an index of pain was measured. Mice showing response latency above 25 seconds were excluded from the experiment. To prevent a burn damage of mouse tissue by heating, cutoff time of 50 seconds was defined. The results were described as an inhibition rate (%) obtained from the following equation.
Inhibition rate (%)=(A-B)×100/(50-B)
A: Response latency (seconds) after the administration of test compound solution
B: Response latency (seconds) before the administration of test compound solution

[3] = system: carrageenin-induced paw edema; experiment: Antiinflammatory activity by the carrageenin-induced hind paw edema; type: in vivo, mice (Std:ddY, male); details: mouse, 30 mg/kg p.o., mean ± standard error, n = 6
Method: Measurement of Antiinflammatory Activity by the Carrageenin-Induced Hind Paw Edema
Std:ddY Strain male mice (20-25 g) were fasted for one day before the experiment, and were used. After test compounds shown in Table 1 was formed to a salt with tartaric acid, this salt was dissolved in sterilized and distilled water at the rate of 30 mg/10 ml to give the test compound solution. As a control, sterilized and distilled water was used. One hour after the oral administration of test compound solutions, 25 μl of λ-carrageenin suspended in 0.9% physiological saline solution (0.5 mg/25 μl) was injected s.c. under the plantar surface of the right hind paw of a mouse and 25 μl of 0.9% physiological saline solution was injected s.c. under the plantar surface of the left hind paw of the same mouse. Three hours and five hours after carrageenin injection, the […] of the paw was measured with a dial gauge calliper. To the control group, One hour after the oral administration of sterilized and distilled water at the rate of 10 ml/kg, 25 μl of λ-carrageenin (0.5 mg/25 μl) suspended in 0.9% physiological saline solution was injected s.c. under the plantar surface of the right hind paw of a mouse and 25 μl of 0.9% physiological saline solution was injected s.c. under the plantar surface of the left hind paw of the same mouse and the later operation was done in the same manner as in the test compound dosing group mentioned above. The results were described as a swelling rate (%) obtained from the following equation.
Swelling rate (%)=(R-L)×100/L
R: the thickness of the right hind paw
L: the thickness of the left hind paw

[4] = cited from earlier work; for analgesic activity, in words: compared to morphine
[5] = system: yeast-induced fever; experiment: Antipyretic activity on yeast-induced fever in rats; type: in vivo, rats (Wistar, male); details: rat, 2 hours after administration
Method: Measurement of Antipyretic Activity on Yeast-Induced Fever in Rats
Wistar Strain male rats (150-190 g) were fasted for one day before the experiment, and were used. Compounds of number (1) and (2) in Table 1 were formed to the tartaric acid salt and these salts were dissolved in 0.9% physiological saline solution at the rate of 10 mg/10 ml and these solution were used as test compound solution. In a control, 0.9% physiological saline solution was used. After rat rectal temperature was measured, 1 ml/100 g of body weight of 7.5% yeast/0.9% physiological saline solution was injected s.c. at dorsal position. Then, rat rectal temperature was measured at 4 hour after the injection of yeast and rats showing the increase rectal temperature by 1 degree or more were selected and used. Test compound solution was administered s.c. at 5 hours after the injection of yeast. The rectal temperature was measured 2 hours after the administration of test compound solution. The results were described with the difference between the rectal temperature before and after the administration of test compound solution.

Row | Compound | Inhibition rate (tail-pressure method) [1] [%] | Inhibition rate (hot-plate method) [2] [%] | Swelling rate ([3]; 3 hour) [%] | Swelling rate ([3]; 5 hour) [%] | analgesic/anti-inflammatory activity relative to earlier compounds, in words ([4]; JP, A, H5-17448) | Change of rectal temperature ([5]; 1 mg/kg s.c.) [°C] | Change of rectal temperature ([5]; 3 mg/kg s.c.) [°C] | Change of rectal temperature ([5]; 10 mg/kg s.c.) [°C] | analgesic activity, in words [4] | activity in tail pressure methods and hot plate methods, in words [4]
1 | 15-O-acetyl-8-deoxy-16-epi-14-O-p-chlorobenzoylaconine [(10)] | 23 ± 7 | 40 ± 10 | 49 ± 6 | 49 ± 11 | – | – | – | – | – | –
2 | 15-O-acetyl-8-deoxy-16-epi-14-O-p-chlorobenzoylmesaconine [(9)] | 31 ± 12 | 46 ± 7 | 44 ± 7 | 56 ± 7 | – | – | – | – | – | –
3 | CCN1CC2(COC)C(O)CC(OC)C34C5CC6(O)C(OC)C(O)C(O)(C5C6OC(=O)c5ccc(Cl)cc5)C(C(OC)C23)C14 (centres unmarked) [14-O-p-chlorobenzoylaconine, reference compound] | 10 ± 4 | 17 ± 7 | 57 ± 8 | 63 ± 9 | exhibits activity superior to that of compounds having a p-chlorobenzoyloxy group bonded to the position 14 carbon atom of the aconitine chemical structure | – | – | – | – | –
4 | COCC12CN(C)C3C4C(OC)C1C3(C(OC)CC2O)C1CC2(O)C(OC)C(OC(C)=O)C4(O)C1C2OC(=O)c1ccc(Cl)cc1 (centres unmarked) [(1), 15-O-acetyl-14-O-p-chlorobenzoylmesaconine] | 48 ± 12 | 52 ± 12 | 49 ± 2 | 52 ± 6 | – | 1.3 ± 0.1 | 0.2 ± 0.1 | 0.2 ± 0.2 | – | –
5 | CCCN1CC2(COC)C(O)CC(OC)C34C5CC6(O)C(OC)C(OC(C)=O)C(O)(C5C6OC(=O)c5ccc(Cl)cc5)C(C(OC)C23)C14 (centres unmarked) [(3), de-N-ethyl-N-propyl-15-O-acetyl-14-O-p-chlorobenzoylaconine] | 36 ± 10 | 39 ± 11 | 42 ± 10 | 54 ± 8 | – | – | – | – | – | –
6 | CCN1CC2(COC)C(OC(C)=O)CC(OC)C34C5CC6(O)C(OC)C(OC(C)=O)C(O)(C5C6OC(=O)c5ccc(Cl)cc5)C(C(OC)C23)C14 (centres unmarked) [(4), 3,15-di-O-acetyl-14-O-p-chlorobenzoylaconine] | 29 ± 8 | 35 ± 9 | 50 ± 7 | 55 ± 9 | – | – | – | – | – | –
7 | COCC12CN(C)C3C4C(OC)C1C3(C(OC)CC2OC(C)=O)C1CC2(O)C(OC)C(OC(C)=O)C4(O)C1C2OC(=O)c1ccc(Cl)cc1 (centres unmarked) [(5), 3,15-di-O-acetyl-14-O-p-chlorobenzoylmesaconine] | 40 ± 10 | 37 ± 10 | 43 ± 10 | 58 ± 10 | – | – | – | – | – | –
8 | COCC12CCC(OC)C34C5CC6(O)C(OC)C(OC(C)=O)C(O)(C5C6OC(=O)c5ccc(Cl)cc5)C(C(OC)C13)C4N(C)C2 (centres unmarked) [(6), 15-O-acetyl-14-O-p-chlorobenzoylhypaconine] | 27 ± 11 | 46 ± 8 | 46 ± 5 | 60 ± 5 | – | – | – | – | – | –
9 | CC(=O)Oc1ccccc1C(=O)O [aspirin] | – | – | – | – | – | – | – | – | weak analgesic activity compared to morphine | no remarkable activity in tail pressure methods and hot plate methods
10 | COc1ccc2c(c1)c(CC(=O)O)c(C)n2C(=O)c1ccc(Cl)cc1 [indomethacin] | – | – | – | – | – | – | – | – | weak analgesic activity compared to morphine | no remarkable activity in tail pressure methods and hot plate methods
11 | de-N-ethyl-N-propyl-15-O-acetyl-8-deoxy-16-epi-14-O-p-chlorobenzoylaconine [(11)] | 25 ± 8 | 34 ± 9 | 50 ± 5 | 52 ± 9 | – | – | – | – | – | –
